Laboratory results: ChEMBL document CHEMBL1201862, “PubChem BioAssay data set” (2004)
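Grown in 96-well plates, cells were treated for 48 hours with each compound at five concentrations. Insufficient inhibition: endpoint recorded as highest concentration tested. At the GI50, growth is halved.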 The source made the active and inactive calls. No stated cut-off is given here; in the data, active = GI50 up to about 1.1 µM and inactive = higher.

How the values were obtained:
Assay in all cases: NCI anticancer screen, dose series, 48 h
NCI-H522 = tested on: NCI-H522
SNB-19 = tested on: SNB-19
MDA-MB-231 = tested on: MDA-MB-231
UACC-62 = tested on: UACC-62
SN12C = tested on: SN12C
Hs-578T = tested on: Hs-578T
OVCAR-5 = tested on: OVCAR-5
786-0 = tested on: 786-0
UO-31 = tested on: UO-31
TK-10 = tested on: TK-10
DU-145 = tested on: DU-145
OVCAR-4 = tested on: OVCAR-4
COLO 205 = tested on: COLO 205
A549 = tested on: A549
NCI-H226 = tested on: NCI-H226
RPMI-8226 = tested on: RPMI-8226
BT-549 = tested on: BT-549
KM12 = tested on: KM12
SK-MEL-2 = tested on: SK-MEL-2
MOLT-4 = tested on: MOLT-4
T47D = tested on: T47D
K562 = tested on: K562
CAKI-1 = tested on: CAKI-1
SW-620 = tested on: SW-620
CCRF-CEM = tested on: CCRF-CEM
SF-539 = tested on: SF-539
MDA-MB-435 = tested on: MDA-MB-435
SK-MEL-28 = tested on: SK-MEL-28
SF-268 = tested on: SF-268
NCI-H23 = tested on: NCI-H23
SK-MEL-5 = tested on: SK-MEL-5
SR = tested on: SR
EKVX = tested on: EKVX
U-251 = tested on: U-251
HOP-62 = tested on: HOP-62
RXF 393 = tested on: RXF 393
OVCAR-8 = tested on: OVCAR-8
HCT-15 = tested on: HCT-15
HT-29 = tested on: HT-29
MCF7 = tested on: MCF7
ACHN = tested on: ACHN
NCI/ADR-RES = tested on: NCI/ADR-RES
HOP-92 = tested on: HOP-92
UACC-257 = tested on: UACC-257
A498 = tested on: A498
HCC 2998 = tested on: HCC 2998
SK-OV-3 = tested on: SK-OV-3
SNB-75 = tested on: SNB-75
SF-295 = tested on: SF-295
HCT-116 = tested on: HCT-116
OVCAR-3 = tested on: OVCAR-3
IGROV-1 = tested on: IGROV-1
M14 = tested on: M14
PC-3 = tested on: PC-3

Structure (SMILES): NC1CC(=O)c2sccc21 (centres undefined)
- GI50 (NCI-H522): > 100 µM (inactive)
- GI50 (SNB-19): > 100 µM (inactive)
- GI50 (MDA-MB-231): > 100 µM (inactive)
- GI50 (UACC-62): > 100 µM (inactive)
- GI50 (SN12C): > 100 µM (inactive)
- GI50 (Hs-578T): > 100 µM (inactive)
- GI50 (OVCAR-5): > 100 µM (inactive)
- GI50 (786-0): > 100 µM (inactive)
- GI50 (UO-31): > 100 µM (inactive)
- GI50 (TK-10): > 100 µM (inactive)
- GI50 (DU-145): > 100 µM (inactive)
- GI50 (OVCAR-4): > 100 µM (inactive)
- GI50 (COLO 205): > 100 µM (inactive)
- GI50 (A549): > 100 µM (inactive)
- GI50 (NCI-H226): > 100 µM (inactive)
- GI50 (RPMI-8226): > 100 µM (inactive)
- GI50 (BT-549): > 100 µM (inactive)
- GI50 (KM12): > 100 µM (inactive)
- GI50 (SK-MEL-2): 27.9 µM (inactive)
- GI50 (MOLT-4): > 100 µM (inactive)
- GI50 (T47D): > 100 µM (inactive)
- GI50 (K562): > 100 µM (inactive)
- GI50 (CAKI-1): > 100 µM (inactive)
- GI50 (SW-620): > 100 µM (inactive)
- GI50 (CCRF-CEM): > 100 µM (inactive)
- GI50 (SF-539): > 100 µM (inactive)
- GI50 (MDA-MB-435): > 100 µM (inactive)
- GI50 (SK-MEL-28): > 100 µM (inactive)
- GI50 (SF-268): > 100 µM (inactive)
- GI50 (NCI-H23): > 100 µM (inactive)
- GI50 (SK-MEL-5): > 100 µM (inactive)
- GI50 (SR): > 100 µM (inactive)
- GI50 (EKVX): > 100 µM (inactive)
- GI50 (U-251): > 100 µM (inactive)
- GI50 (HOP-62): > 100 µM (inactive)
- GI50 (RXF 393): 29.6 µM (inactive)
- GI50 (OVCAR-8): > 100 µM (inactive)
- GI50 (HCT-15): > 100 µM
- GI50 (HT-29): > 100 µM (inactive)
- GI50 (MCF7): > 100 µM (inactive)
- GI50 (ACHN): > 100 µM (inactive)
- GI50 (NCI/ADR-RES): > 100 µM (inactive)
- GI50 (HOP-92): > 100 µM (inactive)
- GI50 (UACC-257): > 100 µM (inactive)
- GI50 (A498): > 100 µM (inactive)
- GI50 (HCC 2998): > 100 µM (inactive)
- GI50 (SK-OV-3): > 100 µM (inactive)
- GI50 (SNB-75): > 100 µM (inactive)
- GI50 (SF-295): > 100 µM (inactive)
- GI50 (HCT-116): > 100 µM (inactive)
- GI50 (OVCAR-3): > 100 µM (inactive)
- GI50 (IGROV-1): > 100 µM (inactive)
- GI50 (M14): > 100 µM (inactive)
- GI50 (PC-3): 56.4 µM (inactive)
